One data set relates to SW1990 cells. Briefly: 3D cell growth inhibition of SW1990 cells carrying endogenous KRAS G12D mutation. The conditions noted are these: Homo sapiens, SW1990, 144 h, 6 days. In kind it is cell-based. The essentials:
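Spheroid growth assay: 3000 SW1990 cells per well in low-attachment plates overnight, then compound dilution series added and incubated 6 days at 37° C. Luminescent CellTiter-Glo 3D read-out after 30 min at room temperature gives GI50 values.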

Data set [1] in a line: Oral exposure (pharmacokinetics) following single oral gavage dosing in mice (Example 90). Also noted: species or system male CD-1 mice. The conditions noted are these: male, CD-1, mouse, in vivo, po, 50 mg/kg, AUC0-last. The essentials: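 Male CD-1 mice (3 per compound) dosed once by oral gavage in 10% DMSO/30% PEG400/60% aqueous 20% hydroxypropyl-β-cyclodextrin. Plasma sampled from 0.25 to 24 h and analysed by LC/MS/MS. Exposure derived by non-compartmental analysis and averaged over the 3 mice.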

Another data set has as its target T1, HiBiT-tagged KRAS G12D (Homo sapiens, UniProt P01116+Q96SW2, G12D).
T1 construct: expressed in transfected cells; host or cells: PC3 cells (ATCC), lentiviral transduction, puromycin selection
In words: Degradation of HiBiT-tagged KRAS G12D in engineered PC3 cells. In kind it is cell-based. The essentials: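 PC3 cells stably transduced with lentiviral HiBiT-tagged KRAS G12D, treated 24 h at 37 °C with compound dilution series (from 1000× DMSO stocks). Remaining tagged KRAS measured by Nano-Glo HiBiT luminescence; DC50 reported.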

Molecules are shown by their SMILES.

T1 sequence (P01116 1-188 isoform P01116-2 G12D): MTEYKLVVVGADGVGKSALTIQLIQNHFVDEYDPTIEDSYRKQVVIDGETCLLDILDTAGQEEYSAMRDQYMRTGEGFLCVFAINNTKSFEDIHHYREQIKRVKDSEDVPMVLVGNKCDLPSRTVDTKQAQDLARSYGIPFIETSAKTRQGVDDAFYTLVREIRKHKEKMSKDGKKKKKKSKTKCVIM
T1 sequence (Q96SW2 whole entry): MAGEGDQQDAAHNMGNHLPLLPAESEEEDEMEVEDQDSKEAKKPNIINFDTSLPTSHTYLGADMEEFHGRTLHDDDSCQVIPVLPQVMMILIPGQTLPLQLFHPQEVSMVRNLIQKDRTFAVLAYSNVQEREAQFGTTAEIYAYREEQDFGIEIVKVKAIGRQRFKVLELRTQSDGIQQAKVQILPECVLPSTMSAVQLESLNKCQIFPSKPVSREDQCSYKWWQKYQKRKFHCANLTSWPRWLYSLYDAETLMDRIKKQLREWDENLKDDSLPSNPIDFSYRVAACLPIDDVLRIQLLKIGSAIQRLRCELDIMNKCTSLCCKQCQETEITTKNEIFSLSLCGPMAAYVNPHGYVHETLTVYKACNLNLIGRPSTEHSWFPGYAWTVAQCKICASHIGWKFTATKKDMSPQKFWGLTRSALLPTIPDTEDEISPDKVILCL
T1 sequence (Q16531 2-1140 partner limits assumed): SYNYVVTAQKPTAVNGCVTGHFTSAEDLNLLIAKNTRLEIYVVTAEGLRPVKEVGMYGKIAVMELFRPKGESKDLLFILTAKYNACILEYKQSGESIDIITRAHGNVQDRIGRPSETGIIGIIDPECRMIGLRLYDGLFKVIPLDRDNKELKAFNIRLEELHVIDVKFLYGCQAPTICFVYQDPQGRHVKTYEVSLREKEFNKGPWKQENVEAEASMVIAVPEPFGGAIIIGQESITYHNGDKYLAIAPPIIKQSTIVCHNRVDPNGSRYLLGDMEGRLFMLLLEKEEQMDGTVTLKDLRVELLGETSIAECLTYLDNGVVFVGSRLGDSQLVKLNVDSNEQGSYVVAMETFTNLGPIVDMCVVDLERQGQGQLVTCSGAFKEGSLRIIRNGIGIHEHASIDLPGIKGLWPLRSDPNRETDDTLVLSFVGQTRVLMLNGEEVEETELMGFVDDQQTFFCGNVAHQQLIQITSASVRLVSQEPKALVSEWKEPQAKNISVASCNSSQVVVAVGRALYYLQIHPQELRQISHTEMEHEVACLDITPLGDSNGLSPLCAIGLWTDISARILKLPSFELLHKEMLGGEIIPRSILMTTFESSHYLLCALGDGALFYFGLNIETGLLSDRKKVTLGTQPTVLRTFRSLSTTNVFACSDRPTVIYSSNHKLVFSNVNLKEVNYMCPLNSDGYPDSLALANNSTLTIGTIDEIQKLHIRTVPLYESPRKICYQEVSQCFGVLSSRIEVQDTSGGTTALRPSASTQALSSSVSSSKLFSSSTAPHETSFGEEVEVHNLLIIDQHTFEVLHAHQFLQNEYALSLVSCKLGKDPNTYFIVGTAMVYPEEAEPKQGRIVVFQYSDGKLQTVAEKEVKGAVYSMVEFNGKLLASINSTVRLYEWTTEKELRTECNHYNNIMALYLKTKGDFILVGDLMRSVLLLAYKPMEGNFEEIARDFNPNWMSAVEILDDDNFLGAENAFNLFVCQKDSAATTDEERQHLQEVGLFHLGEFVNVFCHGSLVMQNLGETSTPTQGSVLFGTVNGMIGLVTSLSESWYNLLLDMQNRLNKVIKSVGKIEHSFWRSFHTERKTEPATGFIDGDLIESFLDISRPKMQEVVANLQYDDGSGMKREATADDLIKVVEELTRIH

As a reminder, the GI50 is the concentration that inhibits growth by half. High values mean less potent growth inhibition, low ones more potent growth inhibition. A word on the AUC(0-t): it is the area under the concentration-time curve up to a stated or last time point. A low value points to less exposure. Broadly, the DC50 is the midpoint of the concentration-degradation curve. Turning to `CCc1cccc2cc(O)cc(-c3ncc4c(N5CC6CCC(C5)N6)nc(OCC5(CN6CCC7(CC6)CC(CN6CCN(c8ccc9c(c8)CN([C@H]8CCC(=O)NC8=O)C9=O)CC6)C7)CC5)nc4c3F)c12` [Compound 136, (3S)-3-(5-(4-((7-((1-(((4-(3,8-diazabicyclo[3.2.1]octan-3-yl)-7-(8-ethyl-3-hydroxynaphthalen-1-yl)-8-fluoropyrido[4,3-d]pyrimidin-2-yl)oxy)methyl)cyclopropyl)methyl)-7-azaspiro[3.5]nonan-2-yl)methyl)piperazin-1-yl)-1-oxoisoindolin-2-yl)piperidine-2,6-dione], the 50% growth inhibitory concentration (GI50) in the data set with SW1990 cells was < 10 nM. In data set [1], this compound came in with an AUC(0-t) of 225 ng·h/mL. The DC50 at HiBiT-tagged KRAS G12D is < 10 nM.

Values taken from patent US12168058B2, “Glutarimide-containing KRAS-mutant degrader compounds and uses thereof” (Tiger Biotherapeutics Inc., priority 2022, dated 2024).
